Data as given in patent US4160829A, “Antibacterial 1,2,4-oxadiazolylacetamido cephalosporins” (Gist-Brocades N.V., priority 1972, dated 1979).
Converted amounts (≈) assume the structure as drawn. Like-named read-outs stand apart in the source and are kept apart here.

How the values were obtained:
[1] = tested on: Pseud.aerug. H 10; experiment: agar serial dilution test; format: cell-based; settings: agar serial dilution, 24 hours, 37° C.; read-out: minimal inhibitory concentration (MIC)
[2] = tested on: Pseud.aerug. 2396; experiment: agar serial dilution test; format: cell-based; settings: agar serial dilution, 24 hours, 37° C.; read-out: minimal inhibitory concentration (MIC)
[3] = tested on: Prot.rettg. A 821; experiment: agar serial dilution test; format: cell-based, Proteus rettgeri; settings: Providencia rettgeri, 24 h, read-out: minimal inhibitory concentration (MIC)
[4] = tested on: Esch.coli U 20; experiment: agar serial dilution test; format: cell-based, Escherichia coli; settings: Escherichia coli, U20; agar serial dilution, 24 hours, 37° C.; read-out: minimal inhibitory concentration (MIC)
[5] = tested on: Past.multo. A 723; experiment: agar serial dilution test; format: cell-based, Pasteurella multocida; settings: Pasteurella multocida; agar serial dilution, 24 hours, 37° C.; read-out: minimal inhibitory concentration (MIC)
[6] = tested on: Staph.aureus A 355; experiment: micro serial dilution test; format: cell-based, Staphylococcus aureus; settings: Staphylococcus aureus, A355; micro serial dilution (in brackets), about 18 hours, 30° C. or 37° C.; penicillinase-producing strain; read-out: minimal inhibitory concentration (MIC)
[7] = tested on: Staph.aureus A 355; experiment: agar serial dilution test; settings: Staphylococcus aureus, A355, 24 h, read-out: minimal inhibitory concentration (MIC), agar serial dilution, 24 hours, 37° C.; penicillinase-producing strain
[8] = tested on: Strep.haem. A 266; experiment: agar serial dilution test; format: cell-based, Streptococcus haemolyticus; settings: Streptococcus; agar serial dilution, 24 hours, 37° C.; read-out: minimal inhibitory concentration (MIC)
[9] = tested on: Staph.aureus A 2001; experiment: micro serial dilution test; format: cell-based, Staphylococcus aureus; settings: Staphylococcus aureus, A2001, 18 h, micro serial dilution (in brackets), about 18 hours, 30° C. or 37° C.; read-out: minimal inhibitory concentration (MIC)
[10] = tested on: Staph.aureus A 2000; experiment: micro serial dilution test; format: cell-based, Staphylococcus aureus; settings: Staphylococcus aureus, A2000, 18 h, micro serial dilution (in brackets), about 18 hours, 30° C. or 37° C.; read-out: minimal inhibitory concentration (MIC)
[11] = tested on: Staph.aureus A 321; experiment: agar serial dilution test; format: cell-based, Staphylococcus aureus; settings: Staphylococcus aureus, A321, 24 h, agar serial dilution, 24 hours, 37° C.; read-out: minimal inhibitory concentration (MIC)
[12] = tested on: Prot.mirab. H 3; experiment: agar serial dilution test; format: cell-based, Proteus mirabilis; settings: Proteus mirabilis
[13] = tested on: Staph.aureus A 2001; experiment: agar serial dilution test; format: cell-based, Staphylococcus aureus; settings: Staphylococcus aureus, A2001, 24 h, agar serial dilution, 24 hours, 37° C.; read-out: minimal inhibitory concentration (MIC)
[14] = tested on: Bruc.melit. A 488; experiment: microbe, parasite or virus in culture; format: cell-based; settings: Brucella melitensis, 24 h, read-out: minimal inhibitory concentration (MIC)
[15] = tested on: Staph.aureus A 2000; experiment: agar serial dilution test; format: cell-based, Staphylococcus aureus; settings: Staphylococcus aureus, A2000, 24 h, agar serial dilution, 24 hours, 37° C.; read-out: minimal inhibitory concentration (MIC)
[16] = tested on: Strep. faec. L 80; experiment: agar serial dilution test; format: cell-based, Streptococcus faecalis; settings: Enterococcus faecalis; agar serial dilution, 24 hours, 37° C.; read-out: minimal inhibitory concentration (MIC)
[17] = tested on: Salm.typh. R 127; experiment: agar serial dilution test; format: cell-based; settings: 24 h, 37° C., read-out: minimal inhibitory concentration (MIC)
[18] = tested on: Prot.mirab. L 93; experiment: agar serial dilution test; format: cell-based, Proteus mirabilis; settings: Proteus mirabilis
[19] = tested on: Haem.infl. A 1030; experiment: micro serial dilution test; format: cell-based; settings: 18 h, micro serial dilution (in brackets), about 18 hours, 30° C. or 37° C.; read-out: minimal inhibitory concentration (MIC)
[20] = tested on: Pseud.aerug. Wyeth A 1058; experiment: agar serial dilution test; format: cell-based; settings: agar serial dilution, 24 hours, 37° C.; read-out: minimal inhibitory concentration (MIC)
[21] = tested on: Kleb.pneum. A 809; experiment: agar serial dilution test; format: cell-based, Klebsiella pneumoniae; settings: Klebsiella pneumoniae; agar serial dilution, 24 hours, 37° C.; read-out: minimal inhibitory concentration (MIC)
[22] = tested on: Prot.morg. 2241; experiment: agar serial dilution test; format: cell-based; settings: 24 h, agar serial dilution, 24 hours, 37° C.; read-out: minimal inhibitory concentration (MIC)
[23] = tested on: Shig.equir. T 3; experiment: agar serial dilution test; format: cell-based; settings: 24 h, 37° C., read-out: minimal inhibitory concentration (MIC)
[24] = tested on: Bac.Subt.ATCC 6633; experiment: agar serial dilution test; format: cell-based, Bacillus subtilis; settings: Bacillus subtilis, ATCC6633, 24 h, agar serial dilution, 24 hours, 37° C.; read-out: minimal inhibitory concentration (MIC)
[25] = tested on: Salm.dubl. P 43; experiment: agar serial dilution test; format: cell-based, Salmonella dublin; settings: Salmonella enterica, read-out: minimal inhibitory concentration (MIC)
[26] = tested on: Prot.mirab. A 1200; experiment: agar serial dilution test; format: cell-based, Proteus mirabilis; settings: Proteus mirabilis, 24 h, agar serial dilution, 24 hours, 37° C.; read-out: minimal inhibitory concentration (MIC)
[27] = tested on: Dipl.pneum. L 54; experiment: agar serial dilution test; format: cell-based, Diplococcus pneumoniae; settings: Streptococcus pneumoniae; agar serial dilution, 24 hours, 37° C.; read-out: minimal inhibitory concentration (MIC)
[28] = agar serial dilution, 24 hours, 37° C.
[29] = 24 h, read-out: minimal inhibitory concentration (MIC), agar serial dilution, 24 hours, 37° C.
[30] = agar serial dilution, 24 hours, 37° C., read-out: minimal inhibitory concentration (MIC)

CC(=O)OCC1=C(C(=O)O)N2C(=O)[C@@H](NC(=O)C(C)c3nc(C)no3)[C@H]2SC1 (mixture of isomers) [Example 11I, dl-7-[α-methyl-(3-methyl-1,2,4-oxadiazol-5-yl)-acetamido]-cephalosporanic acid]
MIC [1]: > 100 µg/mL
MIC [2]: > 100 µg/mL
MIC [3, 28]: 6 µg/mL
MIC [4]: 50 µg/mL
MIC [5]: 1.5 µg/mL
MIC [6]: 1.2 µg/mL
MIC [7]: 3 µg/mL
MIC [8]: 0.25 µg/mL
MIC [9]: 1.2 µg/mL
MIC [10]: 1.2 µg/mL
MIC [11]: 1 µg/mL
MIC [12, 29]: 12.5 µg/mL
MIC [13]: 1.5 µg/mL
MIC [14]: 6 µg/mL
MIC [15]: 1.5 µg/mL
MIC [16]: 75 µg/mL
MIC [17]: 25 µg/mL
MIC [18, 29]: 12.5 µg/mL
MIC [19]: > 125 µg/mL
MIC [20]: > 100 µg/mL
MIC [21]: 6 µg/mL
MIC [22]: > 100 µg/mL
MIC [23]: 12.5 µg/mL
MIC [24]: 0.12 µg/mL
MIC ([25]; 24 h): 12.5 µg/mL
MIC [26]: 25 µg/mL

CCc1noc(C(C)C(=O)N[C@@H]2C(=O)N3C(C(=O)O)=C(COC(C)=O)CS[C@H]23)n1 (mixture of isomers) [Example 11K, dl-7-[α-methyl-(3-ethyl-1,2,4-oxadiazol-5-yl)-acetamido]-cephalosporanic acid]
MIC [1]: > 100 µg/mL
MIC [2]: > 100 µg/mL
MIC [3]: 12.5 µg/mL
MIC [4]: > 100 µg/mL
MIC [5]: 1.5 µg/mL
MIC [6]: 0.9 µg/mL
MIC [7]: 1.5 µg/mL
MIC [8]: 0.06 µg/mL
MIC [9]: 0.9 µg/mL
MIC [10]: 1.2 µg/mL
MIC [11]: 1.5 µg/mL
MIC [12, 30]: > 100 µg/mL
MIC [13]: 1 µg/mL
MIC [14]: 12.5 µg/mL
MIC [15]: 1.5 µg/mL
MIC [16]: 100 µg/mL
MIC [17]: > 100 µg/mL
MIC [18, 29]: 12.5 µg/mL
MIC [19]: 125 µg/mL
MIC [20]: > 100 µg/mL
MIC [27]: 1 µg/mL
MIC [21]: 6 µg/mL
MIC [22]: > 100 µg/mL
MIC [23]: 25 µg/mL
MIC [24]: 0.25 µg/mL
MIC [25, 28]: 100 µg/mL
MIC [26]: > 100 µg/mL

COCc1noc(CC(=O)N[C@@H]2C(=O)N3[C@@H]2SC(C)(C)[C@@H]3C(=O)O)n1 [Compound A, 6-[(3-methoxymethyl-1,2,4-oxadiazol-5-yl)-acetamido]-penicillanic acid]
MIC [1]: > 100 µg/mL
MIC [2]: > 100 µg/mL
MIC [3, 28]: 6 µg/mL (≈ 16.2 µM)
MIC [4]: 50 µg/mL (≈ 135 µM)
MIC [5]: 1 µg/mL (≈ 2.7 µM)
MIC [6]: 60 µg/mL (≈ 162 µM)
MIC [7]: 6 µg/mL (≈ 16.2 µM)
MIC [8]: 0.03 µg/mL (≈ 0.081 µM)
MIC [9]: 3.7 µg/mL (≈ 9.99 µM)
MIC [10]: 90 µg/mL (≈ 243 µM)
MIC [11]: 0.5 µg/mL (≈ 1.35 µM)
MIC [12, 30]: > 100 µg/mL
MIC [13]: 1.5 µg/mL (≈ 4.05 µM)
MIC [14]: 0.5 µg/mL (≈ 1.35 µM)
MIC [15]: 6 µg/mL (≈ 16.2 µM)
MIC [16]: 6 µg/mL (≈ 16.2 µM)
MIC [17]: 25 µg/mL (≈ 67.5 µM)
MIC [18, 30]: 12.5 µg/mL (≈ 33.7 µM)
MIC [19]: 4 µg/mL (≈ 10.8 µM)
MIC [20]: > 100 µg/mL
MIC [27]: 0.25 µg/mL (≈ 0.675 µM)
MIC [21]: > 100 µg/mL
MIC [22]: > 100 µg/mL
MIC [23]: 1.5 µg/mL (≈ 4.05 µM)
MIC [24]: 0.06 µg/mL (≈ 0.162 µM)
MIC [25, 28]: 12.5 µg/mL (≈ 33.7 µM)
MIC [26]: 100 µg/mL (≈ 270 µM)

CC(=O)OCC1=C(C(=O)O)N2C(=O)[C@@H](NC(=O)C(c3ccccc3)c3nc(C)no3)[C@H]2SC1 (stereo partly drawn) [Compound B, 7-[α-phenyl-(3-methyl-1,2,4-oxadiazol-5-yl)-acetamido]-3-acetoxymethyl-3-cephem-4-carboxylic acid]
MIC [1]: > 100 µg/mL
MIC [2]: > 100 µg/mL
MIC [3, 28]: 3 µg/mL (≈ 6.35 µM)
MIC [4]: > 100 µg/mL
MIC [5]: 0.5 µg/mL (≈ 1.06 µM)
MIC [6]: 1.2 µg/mL (≈ 2.54 µM)
MIC [7]: 1.5 µg/mL (≈ 3.17 µM)
MIC [8]: 0.5 µg/mL (≈ 1.06 µM)
MIC [9]: 1.2 µg/mL (≈ 2.54 µM)
MIC [10]: 1.2 µg/mL (≈ 2.54 µM)
MIC [11]: 0.5 µg/mL (≈ 1.06 µM)
MIC [12, 30]: > 100 µg/mL
MIC [13]: 1.5 µg/mL (≈ 3.17 µM)
MIC [14]: 1.5 µg/mL (≈ 3.17 µM)
MIC [15]: 1.5 µg/mL (≈ 3.17 µM)
MIC [16]: 50 µg/mL (≈ 106 µM)
MIC [17]: > 100 µg/mL
MIC [18, 30]: 25 µg/mL (≈ 52.9 µM)
MIC [19]: 1.2 µg/mL (≈ 2.54 µM)
MIC [20]: > 100 µg/mL
MIC [27]: 1 µg/mL (≈ 2.12 µM)
MIC [21]: 6 µg/mL (≈ 12.7 µM)
MIC [22]: > 100 µg/mL
MIC [23]: > 100 µg/mL
MIC [24]: 0.25 µg/mL (≈ 0.529 µM)
MIC [25, 28]: > 100 µg/mL
MIC [26]: > 100 µg/mL

CC1=C(C(=O)O)N2C(=O)[C@@H](NC(=O)Cc3nc(-c4c(Cl)cccc4Cl)no3)[C@H]2SC1 [Example 11E, 7-{[3-(2,6-dichlorophenyl)-1,2,4-oxadiazol-5-yl]-acetamido}desacetoxycephalosporanic acid]
MIC [1]: > 100 µg/mL
MIC [2]: > 100 µg/mL
MIC [3, 28]: > 100 µg/mL
MIC [4]: > 100 µg/mL
MIC [5]: 25 µg/mL (≈ 53.3 µM)
MIC [6]: 0.25 µg/mL (≈ 0.533 µM)
MIC [7]: 0.75 µg/mL (≈ 1.6 µM)
MIC [8]: 0.25 µg/mL (≈ 0.533 µM)
MIC [9]: 0.25 µg/mL (≈ 0.533 µM)
MIC [10]: 3.7 µg/mL (≈ 7.88 µM)
MIC [11]: 0.5 µg/mL (≈ 1.07 µM)
MIC [12, 30]: > 100 µg/mL
MIC [13]: 1 µg/mL (≈ 2.13 µM)
MIC [14]: 50 µg/mL (≈ 107 µM)
MIC [15]: 0.75 µg/mL (≈ 1.6 µM)
MIC [16]: 12.5 µg/mL (≈ 26.6 µM)
MIC [17]: > 100 µg/mL
MIC [18, 30]: > 100 µg/mL
MIC [19]: 125 µg/mL (≈ 266 µM)
MIC [20]: > 100 µg/mL
MIC [21]: 100 µg/mL (≈ 213 µM)
MIC [22]: > 100 µg/mL
MIC [23]: > 100 µg/mL
MIC [24]: 1 µg/mL (≈ 2.13 µM)
MIC [25, 28]: > 100 µg/mL
MIC [26]: > 100 µg/mL
